In patent US7396837B2, “Antitumoral analogs of lamellarins” (Pharma Mar, S.A.U., priority 2002, dated 2008):
Where two headings read alike, the source gives them in different places.

What was measured:
Assay type in all cases: cell-based
PANC-1 = test: SRB colorimetric cell growth inhibition assay, PANC-1; details: for IC (TGI): TGI=total growth inhibition (cytostatic effect), read-out: TGI PANC-1; for CC50: PANC-1, read-out: LC50 PANC-1, PANC-1, LC=cell killing (cytotoxic effect); for GI50: GI=growth inhibition, read-out: GI50 PANC-1
In short: (§1)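 Cells are kept under uninterrupted exposure to compound. Staining with sulforhodamine B then measures cell growth and viability. Triplicate data give mean ± SD, from which growth inhibition, total growth inhibition and lethal concentration values follow.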

DU-145 = test: SRB colorimetric cell growth inhibition assay, DU-145; details: for TGI DU-145: total growth inhibition (cytostatic effect); for GI50: GI=growth inhibition, read-out: GI50 DU-145
In short: as §1

SKOV-3 = test: SRB colorimetric cell growth inhibition assay, SKOV-3; details: Homo sapiens; for GI50: SK-OV-3, SKOV-3, GI=growth inhibition, read-out: GI50 SKOV-3; for LC50 (concentration causing 50% net cell killing): SK-OV-3, read-out: LC50 SKOV-3; for IC (TGI): SK-OV-3, SKOV-3, total growth inhibition (cytostatic effect), read-out: TGI SKOV-3
In short: (§2)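 Sulforhodamine B colorimetric assay of cell growth and viability, mean ± SD of triplicate wells. Parameters derived: GI (growth inhibition), TGI (total growth inhibition, cytostatic) and LC (cell killing, cytotoxic).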

LNCaP = test: SRB colorimetric cell growth inhibition assay, LNCaP; details: Homo sapiens, LNCaP; for GI50 / IC (TGI): LN-caP; for GI50: GI=growth inhibition, read-out: GI50 LN-caP; for IC (TGI): total growth inhibition (cytostatic effect), read-out: TGI LN-caP; for CC50: read-out: LC50 LN-caP, LN-caP, cell killing (cytotoxic effect)
In short: as §1

H-MEC-1 = test: SRB colorimetric cell growth inhibition assay, H-MEC-1; details: Homo sapiens, HMEC-1, H-MEC-1; for GI50: GI=growth inhibition, read-out: GI50 H-MEC-1; for IC (TGI): total growth inhibition (cytostatic effect), read-out: TGI H-MEC-1
In short: as §2

[1] = as above; details: human
In short: as §2

HT-29 = test: SRB colorimetric cell growth inhibition assay, HT-29; details: for GI50: HT-29, GI=growth inhibition, read-out: GI50 HT-29; for IC (TGI) / CC50: Homo sapiens; for IC (TGI): HT-29, HT-29, TGI=total growth inhibition (cytostatic effect), read-out: TGI HT-29; for CC50: HT-29, read-out: LC50 HT-29, HT-29, LC=cell killing (cytotoxic effect)
In short: as §1

K-562 = test: SRB colorimetric cell growth inhibition assay, K-562; details: for GI50: GI=growth inhibition, read-out: GI50 K-562; for IC (TGI): TGI=total growth inhibition (cytostatic effect), read-out: TGI K-562; for CC50: K562, read-out: LC50 K-562, K-562, LC=cell killing (cytotoxic effect)
In short: as §1

SK-BR-3 = test: SRB colorimetric cell growth inhibition assay, SK-BR-3; details: for IC (TGI) / CC50: Homo sapiens; for IC (TGI): SK-BR-3, SK-BR-3, total growth inhibition (cytostatic effect), read-out: TGI SK-BR-3; for CC50: SK-BR-3, read-out: LC50 SK-BR-3, SK-BR-3, cell killing (cytotoxic effect); for GI50: SK-BR-3, GI=growth inhibition, read-out: GI50 SK-BR-3
In short: as §1

IGROV-ET = test: SRB colorimetric cell growth inhibition assay, IGROV-ET (ET-743 resistant); details: Homo sapiens; for GI50 / IC (TGI): IGROV-ET; for GI50: GI=growth inhibition, read-out: GI50 IGROV-ET; for IC (TGI): total growth inhibition (cytostatic effect), read-out: TGI IGROV-ET; for CC50: read-out: LC50 IGROV-ET, IGROV-ET, cell killing (cytotoxic effect)
In short: as §1

LoVo = test: SRB colorimetric cell growth inhibition assay, LoVo; details: Homo sapiens, LoVo; for CC50: read-out: LC50 LOVO, LOVO, LC=cell killing (cytotoxic effect); for GI50: GI=growth inhibition, read-out: GI50 LOVO; for IC (TGI): TGI=total growth inhibition (cytostatic effect), read-out: TGI LOVO
In short: as §1

LoVo-Dox = test: SRB colorimetric cell growth inhibition assay, LoVo-Dox (MDR); details: Homo sapiens; for GI50 / IC (TGI): LOVO-DOX; for GI50: GI=growth inhibition, read-out: GI50 LOVO-DOX; for IC (TGI): TGI=total growth inhibition (cytostatic effect), read-out: TGI LOVO-DOX; for CC50: read-out: LC50 LOVO-DOX, LOVO-DOX, LC=cell killing (cytotoxic effect)
In short: as §1

A-549 = test: SRB colorimetric cell growth inhibition assay, A-549; details: for GI50: GI=growth inhibition, read-out: GI50 A-549; for IC (TGI): TGI=total growth inhibition (cytostatic effect), read-out: TGI A-549; for CC50: A549, read-out: LC50 A-549, A-549, LC=cell killing (cytotoxic effect)
In short: as §1

SK-MEL-28 = test: SRB colorimetric cell growth inhibition assay, SK-MEL-28; details: for IC (TGI): SK-MEL-28, MEL-28, total growth inhibition (cytostatic effect), read-out: TGI MEL-28; for GI50: MEL-28, GI=growth inhibition, read-out: GI50 MEL-28
In short: as §1

IGROV = test: SRB colorimetric cell growth inhibition assay, IGROV; details: for GI50: GI=growth inhibition, read-out: GI50 IGROV
In short: as §1

## COc1cc(-c2c3c4cc(OC)c(OC(=O)[C@@H](N)C(C)C)cc4oc(=O)c3n3ccc4c(OC(=O)[C@@H](N)C(C)C)c(OC)c(OC)cc4c23)ccc1OC(=O)[C@@H](N)C(C)C [Compound 35]
PANC-1; Homo sapiens, PANC-1, PANC-1
  IC (TGI): 1210 nM
PANC-1; Homo sapiens
  CC50: 3670 nM
PANC-1; PANC-1
  GI50: 178 nM
DU-145; DU-145
  TGI DU-145: 8.81E−08 Molar
DU-145; Homo sapiens, DU-145, DU-145
  GI50: 32.1 nM
DU-145; human
  CC50: 576 nM
SKOV-3
  GI50: 113 nM
  LC50 (concentration causing 50% net cell killing): 3830 nM
  IC (TGI): 932 nM
LNCaP
  GI50: 88.1 nM
  IC (TGI): 468 nM
  CC50: 2220 nM
H-MEC-1
  GI50: 19.7 nM
  IC (TGI): 40.3 nM
[1]
  LC50 (concentration giving 50% net cell killing): 82.6 nM
HT-29
  GI50: 1180 nM
  IC (TGI): 2440 nM
  CC50: 5060 nM
K-562; Homo sapiens, K562, K-562
  GI50: 80.8 nM
  IC (TGI): 975 nM
K-562; Homo sapiens
  CC50: 4820 nM
SK-BR-3
  IC (TGI): 689 nM
  CC50: 4030 nM
  GI50: 228 nM
IGROV-ET
  GI50: 192 nM
  IC (TGI): 855 nM
  CC50: 5450 nM
LoVo
  CC50: 2600 nM
  GI50: 207 nM
  IC (TGI): 705 nM
LoVo-Dox
  GI50: 217 nM
  IC (TGI): 737 nM
  CC50: 2800 nM
A-549; A-549
  GI50: 52.4 nM
A-549; Homo sapiens, A549, A-549
  IC (TGI): 259 nM
A-549; Homo sapiens
  CC50: 6090 nM
SK-MEL-28; Homo sapiens
  IC (TGI): 915 nM
SK-MEL-28
  GI50: 54.6 nM
SK-MEL-28; human
  CC50: 2770 nM
IGROV; Homo sapiens, IGROV
  GI50: 152 nM
IGROV; Homo sapiens, IGROV, total growth inhibition (cytostatic effect), read-out: TGI IGROV
  IC (TGI): 907 nM
IGROV; human
  CC50: 4050 nM

## COc1cc(-c2c3n(c4c(=O)oc5cc(OC(=O)[C@@H](N)C(C)C)c(OC)cc5c24)CCc2cc(OC(=O)[C@@H](N)C(C)C)c(OC)cc2-3)ccc1OC(=O)[C@@H](N)C(C)C [Compound 37]
PANC-1; Homo sapiens, PANC-1, PANC-1
  GI50: 2150 nM
  IC (TGI): 11000 nM
PANC-1; Homo sapiens
  CC50: 11000 nM
DU-145; DU-145
  GI50: 67.7 nM
  TGI DU-145: 1.55E−06 Molar
DU-145; Homo sapiens, DU-145, read-out: LC50 DU-145, DU-145, cell killing (cytotoxic effect)
  CC50: 5620 nM
SKOV-3
  GI50: 1620 nM
  LC50 (concentration causing 50% net cell killing): 7870 nM
  IC (TGI): 3580 nM
LNCaP
  GI50: 593 nM
  IC (TGI): 2180 nM
  CC50: 5050 nM
H-MEC-1
  GI50: 97.4 nM
  IC (TGI): 1260 nM
[1]
  LC50 (concentration giving 50% net cell killing): 4730 nM
HT-29
  GI50: 91.2 nM
  IC (TGI): 2000 nM
  CC50: 10900 nM
K-562; Homo sapiens, K562, K-562
  IC (TGI): 1970 nM
K-562; Homo sapiens
  CC50: 7530 nM
K-562; K-562
  GI50: 12.4 nM
SK-BR-3
  IC (TGI): 2120 nM
  CC50: 10600 nM
  GI50: 57.6 nM
IGROV-ET
  GI50: 359 nM
  IC (TGI): 2110 nM
  CC50: 8040 nM
LoVo
  CC50: 10800 nM
  GI50: 1790 nM
  IC (TGI): 4400 nM
LoVo-Dox
  GI50: 2100 nM
  IC (TGI): 4600 nM
  CC50: 10100 nM
A-549; Homo sapiens, A549, A-549
  GI50: 1720 nM
  IC (TGI): 3800 nM
A-549; Homo sapiens
  CC50: 8380 nM
SK-MEL-28; Homo sapiens
  IC (TGI): 2680 nM
SK-MEL-28; Homo sapiens, SK-MEL-28, read-out: LC50 MEL-28, MEL-28, cell killing (cytotoxic effect)
  CC50: 7950 nM
SK-MEL-28
  GI50: 623 nM
IGROV; Homo sapiens, IGROV, read-out: LC50 IGROV, IGROV, cell killing (cytotoxic effect)
  CC50: 5890 nM
IGROV; IGROV
  GI50: 577 nM
IGROV; IGROV, total growth inhibition (cytostatic effect)
  TGI IGROV: 2.17E−06 Molar
